The results in this text go back to ChEMBL document CHEMBL1145660, “Antimicrobial Neolignans of Sassafras randaiense Roots” (1983).

What all share (assay type): functional
For test [1], the system named is Saccharomyces cerevisiae. Put plainly: Antimicrobial activity against Saccharomyces cerevisiae ATCC 9763.
For test [2], the system named is Trichophyton mentagrophytes. The test can be described thus: Antimicrobial activity against Trichophyton mentagrophytes ATCC 9972.
Test [3] concerns Staphylococcus aureus. The test can be described thus: Antimicrobial activity against Staphylococcus aureus ATCC 6538.
In test [4] the test system is Mycolicibacterium smegmatis. Put plainly: Antimicrobial activity against Mycobacterium smegmatis ATCC 607.

Structures are written as SMILES. In brackets after ≈: the same amount, converted by molar mass.

In general, MIC refers to the lowest concentration that inhibits growth of the organism. The low end stands for inhibition by little substance, the high end for a need for much substance. For the compound `C=CCc1ccc(Oc2cc(CC=C)ccc2O)cc1` [ISOMAGNOLOL], the MIC in test [1] came out at 25 µg/mL (≈ 93.9 µM); in test [2], 1.56 µg/mL (≈ 5.86 µM); in test [3], 3.12 µg/mL (≈ 11.7 µM); in test [4] it was 1.56 µg/mL (≈ 5.86 µM).
